Experimental data: patent publication US20250152564A1, “PROPYLENE KETONE-CONTAINING BIOINHIBITOR, PREPARATION METHOD THEREFOR, AND USE THEREOF” (SHANGHAI HANSOH BIOMEDICAL CO., LTD., priority 2022, published 2025)

Key:
[1] = test system: BaF3 FGFR2-BICC1 V564F cells; assay: CellTiter-Glo cell proliferation inhibition, BaF3 FGFR2-BICC1 V564F; format: cell-based; conditions: Mus musculus, 72 h, read-out: BaF3 FGFR2-BICC1 V564F inhibitory activity IC50
Description: To evaluate inhibitory effects of the compounds on the proliferation of NCI-H716, SNU-16 and BaF3-FGFR2-BICC1 V564F cells by cell proliferation inhibition experiments.
CellTiter-Glo method was used to detect inhibitory effects of the compounds on the proliferation of NCI-H716, SNU-16 and BaF3 FGFR2-BICC1 V564F cells. The highest detection concentration of the compounds was 1000 nM, which was diluted in 3 folds, with a total of 9 concentrations (1000 nM to 0.15 nM). After the cells were plated at an appropriate density, compounds were added the next day and incubated for 72 h before detection using the […] detection kit.
(§1) 1) Inhibition rate (%): Inhibition rate %=[(mean value in positive control well−value in sample well)/(mean value in positive control well−mean value in negative control well)]×100, wherein the positive control well was a reaction well without a compound […], and the negative control well was a reaction wells without an enzyme.
(§2) 2) Curve fitting: Log(inhibitor) vs. response—Variable slope (four parameters) in GraphPad Prism 6 was used for fitting equation analysis of the compound concentration and the corresponding inhibition rate, and the curve was fitted to obtain the IC50 values of the compounds.

FGFR2 = FGFR2 (Homo sapiens (Human), UniProt P21802); assay: TR-FRET kinase inhibition assay, FGFR2; format: biochemical; conditions: ATP Km concentration (30 μM)
FGFR2, sequence (P21802 481-770): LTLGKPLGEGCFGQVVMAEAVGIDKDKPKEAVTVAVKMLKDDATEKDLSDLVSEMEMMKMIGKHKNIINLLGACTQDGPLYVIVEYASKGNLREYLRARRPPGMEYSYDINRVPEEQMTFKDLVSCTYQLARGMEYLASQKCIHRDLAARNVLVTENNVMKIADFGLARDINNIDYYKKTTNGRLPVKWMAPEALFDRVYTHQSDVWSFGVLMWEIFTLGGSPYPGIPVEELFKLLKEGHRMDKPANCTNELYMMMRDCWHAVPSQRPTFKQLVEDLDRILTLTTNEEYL
Description: (§3) To measure the IC50 values of the compounds against FGFR1, FGFR2, FGFR3, FGFR4, and FGFR2 V564F at ATP Km concentrations by TR-FRET method.
(§4) TR-FRET (time-resolved fluorescence resonance energy transfer) method was used to detect the inhibitory activity of the compounds on FGFR1, FGFR2, FGFR3, FGFR4, and FGFR2 V564F kinase region fragments. The highest detection concentration of the compounds in 5 kinase experiments was 1000 nM, which was diluted in 3 folds, with a total of 11 concentrations (1000 nM to 0.017 nM). A kinase buffer (50 mM HEPES pH 7.5, 1 mM EGTA, 10 mM MgCl2, 2 mM DTT, and 0.01% Tween-20) was used to prepare 4× enzyme solution, 4× compound solutions diluted in gradient, and a 2×ATP/Peptide substrate solution. To a 384-well plate, 2.5 μL of enzyme solution and 2.5 μL of diluted […] compound solution were added, and 5 μL of 2×ATP/Peptide substrate solution was then added. After reacting at room temperature for 60 minutes for FGFR1, FGFR2, FGFR3, and FGFR2 V564F kinases, and 120 minutes for FGFR4 kinase, 10 μL of a 2× termination and detection mixed liquid prepared with 1×LANCE detection buffer with an EDTA concentration of 20 mM and a Europium-anti-phosphotyrosine (PT66) concentration of 2 nM was added to each well of the plate. After reacting at room temperature for 60 minutes for FGFR1, FGFR2, FGFR3, and FGFR4, and 30 minutes for FGFR2 V564F, the fluorescence signal value in each well of the plate was measured by a microplate reader.
as §1, with “(%): Calculation was performed on the raw data (665 nm/620 nm reading ratio) according to the following formula to obtain the inhibition rate.” for “(%):”
as §2

FGFR2 V564F = FGFR2 V564F (Homo sapiens (Human), UniProt P21802, V564F); assay: TR-FRET kinase inhibition assay, FGFR2 V564F; format: biochemical; conditions: ATP Km concentration (20 μM)
FGFR2 V564F, sequence (P21802 481-770 V564F): as the sequence (P21802 481-770) above, with V84F counted along it
Description: as §3, §4
as §1, with “(%): Calculation was performed on the raw data (665 nm/620 nm reading ratio) according to the following formula to obtain the inhibition rate.” for “(%):”
as §2

Row | Structure (SMILES) | IC50 [1] | IC50 (FGFR2) | IC50 (FGFR2 V564F)
1 | C=CC(=O)N1CC[C@H](n2nc(C#Cc3ccc4oc(C5CC5)nc4c3)c3c(N)ncnc32)C1 [B, reference compound] | 11.5 nM |  | 18.4 nM
2 | C=CC(=O)N1CC[C@H](n2nc(C#Cc3ccc4c(c3)ncn4C3CC3)c3c(N)ncc(-c4ccn(C)n4)c32)C1 [Example 42, (S)-1-(3-(4-amino-3-((1-cyclopropyl-1H-benzo[d]imidazol-5-yl)ethynyl)-7-(1-methyl-1H-pyrazol-3-yl)-1H-pyrazolo[4,3-c]pyridin-1-yl)pyrrolidine-1-methyl)prop-2-en-1-one] |  |  | 3.9 nM
3 | C=CC(=O)N1CC[C@H](n2nc(C#Cc3cc4ncn(C)c4cc3F)c3c(N)ncc(-c4cscn4)c32)C1 [Example 14, 1-[(3S)-3-[4-amino-3-[2-(6-fluoro-1-methyl-benzo[d]imidazol-5-yl)ethynyl]-7-thiazol-4-yl-pyrazolo[4,3-c]pyridin-1-yl]pyrrolidin-1-yl]-2-propen-1-one] |  | 2.4 nM | 1.3 nM
4 | C=CC(=O)N1CC[C@H](n2nc(C#Cc3cc4ncn(C5CC5)c4cc3Cl)c3c(N)ncc(-c4ccn(C)n4)c32)C1 [Example 43, (S)-1-(3-(4-amino-3-((6-chloro-1-cyclopropyl-1H-benzo[d]imidazol-5-yl)ethynyl)-7-(1-methyl-1H-pyrazol-3-yl)-1H-pyrazolo[4,3-c]pyridin-1-yl)pyrrolidin-1-yl)prop-2-en-1-one] |  |  | 1.1 nM
5 | C=CC(=O)N1CC[C@H](n2nc(C#Cc3cc4ncn(C)c4cc3F)c3c(N)ncc(C4CC4)c32)C1 [Example 20, (S)-1-(3-(4-amino-7-cyclopropyl-3-((6-fluoro-1-methyl-1H-benzo[d]imidazol-5-yl)ethynyl)-1H-pyrazolo[4,3-c]pyridin-1-yl)pyrrolidin-1-yl)prop-2-en-1-one] |  |  | 2.8 nM
6 | C=CC(=O)N1CC[C@H](n2nc(C#Cc3ccc4c(c3)ncn4C3CC3)c3c(N)ncc(C(=O)C(C)C)c32)C1 [Example 40] |  |  | 1.9 nM

Results, then the compound that gave them:

Row | IC50 [1] | IC50 (FGFR2) | IC50 (FGFR2 V564F) | Structure (SMILES)
7 | 4 nM | 3.4 nM | 1.1 nM | C=CC(=O)N1CC[C@H](n2nc(C#Cc3ccc4c(c3)ncn4CC)c3c(N)ncc(C(=O)C(C)C)c32)C1 [Example 59]
8 |  | 2.4 nM | 1.2 nM | C=CC(=O)N1CC[C@H](n2nc(C#Cc3cc4ncn(CC)c4cc3F)c3c(N)ncc(-c4cscn4)c32)C1 [Example 62, (S)-1-(3-(4-amino-3-((1-ethyl-6-fluoro-1H-benzo[d]imidazol-5-yl)ethynyl)-7-(thiazol-4-yl)-1H-pyrazolo[4,3-c]pyridin-1-yl)pyrrolidin-1-yl)prop-2-en-1-one]
9 | 1.6 nM |  | 1.6 nM | C=CC(=O)N1CC[C@H](n2nc(C#Cc3cc4ncn(C)c4cc3Cl)c3c(N)ncc(C(C)=O)c32)C1 [Example 67, (S)-1-(3-(7-acetyl-4-amino-3-((6-chloro-1-methyl-1H-benzo[d]imidazol-5-yl)ethynyl)-1H-pyrazolo[4,3-c]pyridin-1-yl)pyrrolidin-1-yl)prop-2-en-1-one]
10 |  |  | 3.3 nM | C=CC(=O)N1CC[C@H](n2nc(C#Cc3cc4ncn(C5CC5)c4cc3F)c3c(N)ncc(C)c32)C1 [Example 51, (S)-1-(3-(4-amino-3-((1-cyclopropyl-6-fluoro-1H-benzo[d]imidazol-5-yl)ethynyl)-7-methyl-1H-pyrazolo[4,3-c]pyridin-1-yl)pyrrolidin-1-yl)prop-2-en-1-one]
11 | 0.5 nM |  | 1 nM | C=CC(=O)N1CC[C@H](n2nc(C#Cc3cc4ncn(C5CC5)c4cc3Cl)c3c(N)ncc(C(=O)C(C)C)c32)C1 [Example 47]
12 |  |  | 1.8 nM | C=CC(=O)N1CC[C@H](n2nc(C#Cc3cc4ncn(C5CC5)c4cc3F)c3c(N)ncc(C4CC4)c32)C1 [Example 52, (S)-1-(3-(4-amino-7-cyclopropyl-3-((1-cyclopropyl-6-fluoro-1H-benzo[d]imidazol-5-yl)alkynyl)-1H-pyrazolo[4,3-c]pyridin-1-yl)pyrrolidin-1-yl)prop-2-en-1-one]
